Measurements taken from ChEMBL document CHEMBL3621075, “Discovery of benzothiazine derivatives as novel, orally-active anti-epileptic drug candidates with broad anticonvulsant effect” (Bioorg Med Chem Lett, 2015).
Calls of active or inactive are those of the source.

Columns and labels:
[1] = tested on: Mus musculus; assay: Anticonvulsant activity in mouse assessed as protection against maximal electroshock-induced seizure at 400 mg/kg; format: functional, organism-based
[2] = tested on: Mus musculus; assay: Anticonvulsant activity in mouse assessed as protection against maximal electroshock-induced seizure at 100 mg/kg; format: functional, organism-based
[3] = tested on: Mus musculus; assay: Anticonvulsant activity in mouse assessed as protection against subcutaneous pentylenetetrazol-induced seizure at 100 mg/kg; format: functional, organism-based
[4] = tested on: Rattus norvegicus; assay: Anticonvulsant activity in rat amygdala kindling model assessed as change in after-discharge threshold at 30 mg/kg, po; format: functional
[5] = tested on: Rattus norvegicus; assay: Anticonvulsant activity in rat amygdala kindling model assessed as decrease in rearing and bilateral forelimb clonus seizure 100 mg/kg, po; format: functional, organism-based
[6] = tested on: Rattus norvegicus; assay: Anticonvulsant activity in rat amygdala kindling model assessed as change in after-discharge duration at 30 mg/kg, po; format: functional
[7] = tested on: Mus musculus; assay: Anticonvulsant activity in mouse assessed as protection against maximal electroshock-induced seizure at 50 mg/kg; format: functional, organism-based
[8] = tested on: Mus musculus; assay: Anticonvulsant activity in mouse assessed as protection against maximal electroshock-induced seizure at 25 mg/kg; format: functional, organism-based
[9] = tested on: Rattus norvegicus; assay: Anticonvulsant activity in rat amygdala kindling model assessed as change in after-discharge threshold at 100 mg/kg, po; format: functional
[10] = tested on: Rattus norvegicus; assay: Anticonvulsant activity in rat amygdala kindling model assessed as change in after-discharge duration at 100 mg/kg, po; format: functional
[11] = tested on: Mus musculus; assay: Anticonvulsant activity in ip-dosed mouse assessed as protection against subcutaneous pentylenetetrazol-induced seizure; format: functional; details: sc
[12] = organism: Mus musculus; assay: Anticonvulsant activity in mouse assessed as protection against maximal electroshock-induced seizure; format: functional
[13] = Metabolic stability in rat liver microsome assessed as recovery of parent compound after 30 mins in presence NADPH; format: ADME; details: liver microsomes, read-out: Drug recovery
[14] = Permeability of compound at pH 5.0 by PAMPA assay; format: physicochemical; details: read-out: permeability
[15] = Permeability of compound at pH 7.4 by PAMPA assay; format: physicochemical; details: read-out: permeability
[16] = tested on: Mus musculus; assay: Anticonvulsant activity in mouse assessed as protection against subcutaneous pentylenetetrazol-induced seizure at 400 mg/kg; format: functional, organism-based

SMILES	Activity [1]	remaining at 0.5 h [13] [%]	Papp [14] [×10⁻⁶ cm/s]	Papp [15] [×10⁻⁶ cm/s]	further results
CC(C)NC(=O)C1=Cc2ccccc2S(=O)(=O)N1C	Active	–	–	–	Activity [2]: inactive; Activity [3]: inactive
CN1C(C(=O)NCC(F)F)=Cc2ccccc2S1(=O)=O	Active	–	–	–	–
CCNC(=O)C1=C(Cl)c2ccccc2S(=O)(=O)N1C	–	–	–	–	Activity [4]: 10%; Activity [5]: Active; Activity [6]: -20%; Activity [2]: Active; Activity [7]: Active; Activity [8]: inactive; Activity [9]: 40.5%; Activity [10]: -18.2%; Activity [3]: Active
NS(=O)(=O)Cc1noc2ccccc12 [ZONISAMIDE]	–	–	–	–	Activity [4]: 5.1%; Activity [6]: 7%; ED50 [11]: > 500 mg/kg; Activity [9]: 45.9%; Activity [10]: -37.6%; ED50 [12]: 20 mg/kg
CC1=C(C(=O)NC2CC2)N(C)S(=O)(=O)c2ccccc21	Active	> 90	12	12	Activity [2]: inactive
CCCNC(=O)C1=Cc2ccccc2S(=O)(=O)N1C	Active	> 90	5.9	5.9	Activity [16]: Active; Activity [7]: inactive
CCC1=C(C(=O)NC2CC2)N(C)S(=O)(=O)c2ccccc21	Active	–	–	–	–
CNC(=O)C1=Cc2ccccc2S(=O)(=O)N1C	Active	> 90	5.9	5.9	–
CN1C(C(=O)NC2CC2)=Cc2ccccc2S1(=O)=O	Active	> 90	5.9	5.9	Activity [16]: Active; Activity [2]: Active
CN1C(C(=O)NC2CC2)=C(C2CC2)c2ccccc2S1(=O)=O	Active	> 90	12	12	–
NC(=O)N1c2ccccc2C=Cc2ccccc21 [CARBAMAZEPINE]	–	–	–	–	ED50 [11]: > 100 mg/kg; ED50 [12]: 13 mg/kg
CN1C(C(=O)NC2CC2)=C(Cl)c2ccccc2S1(=O)=O	Active	> 90	12	12	–
O=C(NC1CC1)C1=C(Cl)c2ccccc2S(=O)(=O)N1Cc1ccccc1	inactive	–	–	–	–
O=C1NC(=O)C(c2ccccc2)(c2ccccc2)N1 [PHENYTOIN]	–	–	–	–	ED50 [11]: > 300 mg/kg; ED50 [12]: 8 mg/kg
CC(=O)NCCNC(=O)C1=Cc2ccccc2S(=O)(=O)N1C	inactive	–	–	–	–
CCN1C(C(=O)NC2CC2)=C(Cl)c2ccccc2S1(=O)=O	Active	–	–	–	–
CN1C(C(=O)NC2CC2)=C(c2ccccc2)c2ccccc2S1(=O)=O	–	–	–	–	Activity [16]: inactive
CN(C)C(=O)C1=Cc2ccccc2S(=O)(=O)N1C	Active	–	–	–	–
CCNC(=O)C1=Cc2ccccc2S(=O)(=O)N1C	Active	> 90	5.9	5.9	Activity [16]: Active
